Measurements reported in US20080194462A1, “Methods and Compositions for Treatment of Autoimmune Diseases” (Peptimmune, Inc., priority 2004, published 2008).

Key:
[1] = test system: Non-obese diabetic (NOD) mouse; test: Treatment of NOD mice, development of diabetes; format: in vivo; conditions: 10 μg injected three times a week
Protocol: NOD mice are obtained from Jackson Laboratories, Bar Harbor, Me., and are used as an experimental system (Shi et al. (2001) Proc. Natl. Acad. Sci. USA 98: 6777-6782). These mice begin to develop diabetes at about 13-15 weeks and data are obtained after about 30 weeks to obtain data, such as a frequency of symptoms for comparison of treated and untreated groups of mice. NOD mice were treated herein with Copaxone®, and no difference was found between the untreated animals and animals treated with Copaxone®. In the experiment, 10 μg of Copaxone® was injected into mice three times a week (equivalent to the human dose on a weight ratio basis. A higher dose, 33 μg Copaxone®/mouse three times a week, is also employed. These experiments test the hypothesis that Copaxone® would be ineffective.

[2] = test system: T cells; conditions: cited from earlier work

Substance: Glatiramer acetate
- difference between untreated and treated NOD mice (diabetes) [1]: no difference
- proportion of an individual's T cells activated ([2]; HLA-DR restricted): 15-20%
- T cell response generated through HLA-DQ molecules [2]: little response
